Patent publication US20050080076A1 (Xanodyne Pharmacal, Inc., priority 2003, published 2005)
pKi: −log10 of the molar value.

What was measured:
[1] = Serum concentrations and bioavailability after LMP administration; type: in vivo
Adrenergic α1B = biological target: T1, Adrenergic α1B (Homo sapiens, UniProt P35368); assay: Receptor binding, Adrenergic α1B
T1 sequence (P35368 1-520): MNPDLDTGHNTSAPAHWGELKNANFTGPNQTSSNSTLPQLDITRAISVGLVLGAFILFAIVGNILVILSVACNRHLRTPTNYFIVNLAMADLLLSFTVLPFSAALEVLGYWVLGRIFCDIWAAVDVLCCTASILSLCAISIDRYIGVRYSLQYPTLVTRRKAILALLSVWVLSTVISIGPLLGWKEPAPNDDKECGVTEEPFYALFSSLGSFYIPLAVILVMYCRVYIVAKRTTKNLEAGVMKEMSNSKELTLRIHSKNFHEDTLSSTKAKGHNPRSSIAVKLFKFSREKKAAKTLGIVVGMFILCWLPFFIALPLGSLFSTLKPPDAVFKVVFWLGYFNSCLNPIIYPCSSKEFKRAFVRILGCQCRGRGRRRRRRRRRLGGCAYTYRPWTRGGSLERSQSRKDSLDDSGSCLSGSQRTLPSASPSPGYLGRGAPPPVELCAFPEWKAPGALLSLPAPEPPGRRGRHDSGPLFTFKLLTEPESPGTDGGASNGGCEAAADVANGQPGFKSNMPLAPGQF
Protocol: (§1) Receptor-ligand binding studies were performed as known to one skilled in the art. Compounds evaluated were LMP, the parent compound, the NDM LMP metabolite of LMP, and the sulfoxide metabolite of LMP. These studies verified receptor binding and affinity by the parent compound, as well as identified other potential receptors for the parent compound and its metabolites, and identified and verified receptors and receptor affinity for the metabolites.
(§2) Dopamine receptor affinity included binding to D1, D2, D3, D4, and D5 receptors. Serotonin receptor affinity included binding to 5-HT1A, 5-HT2A, 5-HT2B, 5-HT2, 5-HT5A, 5-HT6, and 5-HT7 receptors. Alpha adrenergic receptor affinity included binding to α1A, α1B, α1C, α2A, α2B, and α2C receptors. Muscarinic receptor affinity included binding to M1, M2, M3, M4, and M5 receptors. Binding to the histamine H1 receptor, the calcium ion channel receptor, and the sodium ion channel receptor were also evaluated. In each of the tables, the following abbreviations are used: LMP indicates the parent compound levomepromazine. NDM LMP indicates the N-desmethyl (N-desmethyl) metabolite. Sulfoxide indicates the sulfoxide metabolite. […] Ki (the inhibition constants of binding) indicate binding affinity.

α2 adrenergic receptors = assay: Receptor affinity summary, α2 adrenergic receptors; type: binding; parameters: key to Relative Affinity: ≧ indicates greater or equal affinity; = indicates about the same affinity; − indicates no affinity; conditions: for Relative Affinity: α2-Adrenergic
Protocol: as §1, §2

Dopamine D2 = Dopamine D2 (Homo sapiens, UniProt P14416); assay: Receptor binding, Dopamine D2
Chain of Dopamine D2 (P14416 whole entry): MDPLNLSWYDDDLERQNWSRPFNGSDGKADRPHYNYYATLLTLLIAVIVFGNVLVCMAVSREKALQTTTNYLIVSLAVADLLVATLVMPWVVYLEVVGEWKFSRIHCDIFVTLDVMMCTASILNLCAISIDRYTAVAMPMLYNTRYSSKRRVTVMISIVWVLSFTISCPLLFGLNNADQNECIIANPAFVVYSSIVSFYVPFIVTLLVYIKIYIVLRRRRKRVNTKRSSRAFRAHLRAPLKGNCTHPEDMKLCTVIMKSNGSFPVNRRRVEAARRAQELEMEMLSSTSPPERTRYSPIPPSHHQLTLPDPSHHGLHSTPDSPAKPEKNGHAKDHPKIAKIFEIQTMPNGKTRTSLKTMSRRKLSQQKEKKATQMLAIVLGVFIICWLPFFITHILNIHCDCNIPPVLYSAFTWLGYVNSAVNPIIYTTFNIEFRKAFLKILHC
Protocol: as §1, §2

Muscarinic M2 = biological target: T2, Muscarinic M2 (Homo sapiens, UniProt P08172); assay: Receptor binding, Muscarinic M2
T2 sequence (P08172 1-466): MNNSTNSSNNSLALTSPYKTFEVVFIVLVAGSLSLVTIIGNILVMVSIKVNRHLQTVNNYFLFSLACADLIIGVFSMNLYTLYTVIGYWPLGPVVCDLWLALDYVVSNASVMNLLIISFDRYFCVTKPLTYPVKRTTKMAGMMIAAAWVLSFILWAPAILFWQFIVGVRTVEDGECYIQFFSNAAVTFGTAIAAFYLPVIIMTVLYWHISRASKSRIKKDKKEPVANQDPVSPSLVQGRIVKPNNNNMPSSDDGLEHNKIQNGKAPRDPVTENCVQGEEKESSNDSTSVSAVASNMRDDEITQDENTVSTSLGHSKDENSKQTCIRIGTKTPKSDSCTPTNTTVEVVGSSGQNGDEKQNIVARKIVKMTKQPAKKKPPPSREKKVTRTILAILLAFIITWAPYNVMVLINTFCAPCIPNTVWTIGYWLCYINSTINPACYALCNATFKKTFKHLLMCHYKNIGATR
Protocol: as §1, §2

serotonin receptors = assay: Receptor affinity summary, serotonin receptors; type: binding; parameters: key to Relative Affinity: ≧ indicates greater or equal affinity; = indicates about the same affinity; − indicates no affinity; conditions: for Relative Affinity: Serotonin
Protocol: as §1, §2

[2] = tested on: human colon carcinoma cell line (CACO-2 Model); assay: Intestinal absorption assay (CACO-2 Model); type: in vitro ADME
Adrenergic α2A = Adrenergic α2A (Homo sapiens, UniProt P08913); assay: Receptor binding, Adrenergic α2A
Chain of Adrenergic α2A (P08913 whole entry): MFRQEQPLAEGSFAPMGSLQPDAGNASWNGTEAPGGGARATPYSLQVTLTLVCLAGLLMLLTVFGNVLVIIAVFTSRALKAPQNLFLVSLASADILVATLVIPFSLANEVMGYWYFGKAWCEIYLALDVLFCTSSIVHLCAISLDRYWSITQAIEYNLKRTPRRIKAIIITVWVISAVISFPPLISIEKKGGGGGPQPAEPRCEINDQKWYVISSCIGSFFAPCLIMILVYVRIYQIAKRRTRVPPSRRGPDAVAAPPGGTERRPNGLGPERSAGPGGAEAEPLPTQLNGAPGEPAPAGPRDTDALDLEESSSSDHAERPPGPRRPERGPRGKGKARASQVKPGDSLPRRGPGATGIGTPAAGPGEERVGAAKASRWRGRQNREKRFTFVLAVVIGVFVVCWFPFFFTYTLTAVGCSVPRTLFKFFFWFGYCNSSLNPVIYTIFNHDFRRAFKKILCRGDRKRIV
Protocol: as §1, §2

Dopamine D1 = Dopamine D1 (Homo sapiens, UniProt P21728); assay: Receptor binding, Dopamine D1
Chain of Dopamine D1 (P21728 whole entry): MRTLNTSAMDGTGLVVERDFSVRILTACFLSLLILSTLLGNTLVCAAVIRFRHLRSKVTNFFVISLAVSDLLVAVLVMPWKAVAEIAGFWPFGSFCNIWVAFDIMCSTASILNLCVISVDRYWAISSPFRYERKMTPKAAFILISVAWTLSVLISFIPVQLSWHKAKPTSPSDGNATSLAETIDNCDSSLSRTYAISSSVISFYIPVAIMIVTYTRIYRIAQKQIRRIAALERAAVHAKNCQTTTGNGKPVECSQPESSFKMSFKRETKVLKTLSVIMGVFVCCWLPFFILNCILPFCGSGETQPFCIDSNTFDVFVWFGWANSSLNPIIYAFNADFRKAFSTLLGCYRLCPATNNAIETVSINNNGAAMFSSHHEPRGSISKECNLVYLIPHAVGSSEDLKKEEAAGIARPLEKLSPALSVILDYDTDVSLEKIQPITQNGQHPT
Protocol: Receptor-ligand binding studies were performed as known to one skilled in the art.
as §2, with “In each of the tables, the following abbreviations are used: LMP indicates the parent compound levomepromazine. NDM LMP indicates the N-desmethyl (N-desmethyl) metabolite.” left out

dopamine receptors = assay: Receptor affinity summary, dopamine receptors; type: binding; parameters: key to Relative Affinity: ≧ indicates greater or equal affinity; = indicates about the same affinity; − indicates no affinity; conditions: for Relative Affinity: Dopamine
Protocol: as §1, §2

Serum protein binding = type: in vitro ADME
Adrenergic α1A = Adrenergic α1A (Homo sapiens, UniProt P25100); assay: Receptor binding, Adrenergic α1A
Chain of Adrenergic α1A (P25100 whole entry): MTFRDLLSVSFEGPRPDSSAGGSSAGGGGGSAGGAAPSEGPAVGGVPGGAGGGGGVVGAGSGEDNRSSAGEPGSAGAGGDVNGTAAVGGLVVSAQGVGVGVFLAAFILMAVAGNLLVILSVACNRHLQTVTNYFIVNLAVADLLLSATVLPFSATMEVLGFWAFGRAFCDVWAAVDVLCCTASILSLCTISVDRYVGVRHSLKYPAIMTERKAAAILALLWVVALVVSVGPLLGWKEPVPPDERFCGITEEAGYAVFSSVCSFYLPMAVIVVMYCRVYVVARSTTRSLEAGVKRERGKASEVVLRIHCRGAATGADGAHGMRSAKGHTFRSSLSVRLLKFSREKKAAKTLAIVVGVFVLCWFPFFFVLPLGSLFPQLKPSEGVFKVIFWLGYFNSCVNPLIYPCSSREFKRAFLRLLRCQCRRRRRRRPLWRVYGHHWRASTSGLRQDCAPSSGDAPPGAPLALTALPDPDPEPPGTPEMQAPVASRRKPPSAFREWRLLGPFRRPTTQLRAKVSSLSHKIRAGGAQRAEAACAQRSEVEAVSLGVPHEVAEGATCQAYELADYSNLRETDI
Protocol: Receptor-ligand binding studies were performed as known to one skilled in the art. Compounds evaluated were LMP, the parent compound, the NDM LMP metabolite of LMP, and the sulfoxide metabolite of LMP. These studies verified receptor binding and affinity by the parent compound, as well as identified other potential receptors for the parent compound and its metabolites, and identified and verified receptors and receptor affinity for the metabolites. […] Binding to the histamine H1 receptor, the calcium ion channel receptor, and the sodium ion channel receptor were also evaluated. In each of the tables, the following abbreviations are used: LMP indicates the parent compound levomepromazine. NDM LMP indicates the N-desmethyl (N-desmethyl) metabolite. Sulfoxide indicates the sulfoxide metabolite. […] Ki (the inhibition constants of binding) indicate binding affinity.

Compound	pKi (Adrenergic α1B)	binding affinity to α2 adrenergic receptors (in words) (α2 adrenergic receptors)	pKi (Dopamine D2)	pKi (Muscarinic M2)	Relative Affinity (serotonin receptors)	Relative Affinity (α2 adrenergic receptors)	pKi (Adrenergic α2A)	pKi (Dopamine D1)	Relative Affinity (dopamine receptors)	also measured
COc1ccc2c(c1)N(C[C@H](C)CN(C)C)c1ccccc1S2 [LMP, Levomepromazine]	8.70	demonstrated binding	8.10	6.58						bioavailability ([1]; in vivo, 25 mg oral formulation compared to 25 mg intravenous dose, read-out: absolute bioavailability): ~20%
CNCC(C)CN1c2ccccc2Sc2ccc(OC)cc21 (stereo not drawn) [NDM LMP, R(+) 2-methoxy-10-2-methyl-3-monomethylaminopropyl phenothiazine]	8.70	demonstrated binding	7.77	6.49	LMP = NDM LMP	LMP = NDM LMP	6.62	7.00	LMP = NDM LMP	apical to basolateral permeability coefficient relative to parent LMP [2]: 1.5 fold; gut wall (enterocyte) metabolism relative to parent LMP [2]: occurs to a lower extent; percent recovered through the system relative to parent LMP [2]: 1.5-2.0 fold; fraction unbound (Serum protein binding; serum): 0.01
COc1ccc2c(c1)N(C[C@H](C)CN(C)C)c1ccccc1[S+]2[O-] (some centres unmarked) [Sulfoxide, levomepromazine sulfoxide]	7.10	no affinity was detected	< 5.00	5.89	−	−	< 5.00	< 5.00	−	binding affinity to serotonin receptors (in words) (serotonin receptors): essentially no binding affinity; sulfoxide detection after LMP ([1]; 25 mg LMP intramuscularly): no sulfoxide was detected; sulfoxide concentrations relative to parent compound ([1]; LMP 50 mg to 350 mg orally daily for one week): 2.5 times; sulfoxide formation after LMP ([1]; LMP intravenously, bioavailability study): sulfoxide formation was detected although to a much lower extent compared to the oral formulation; total serum concentrations relative to parent LMP or NDM LMP ([1]; in vivo): 1.5-3.0 fold; pKi (Adrenergic α1A): 6.85; binding affinity to dopamine receptors (in words) (dopamine receptors): essentially no binding affinity; free fraction (less protein binding), relative (Serum protein binding; relative to LMP or NDM LMP): 20 fold
